pIC50: −log10 of the molar value.
Experiments:
LIMK1 [1] = target: T1, LIMK1 (Homo sapiens, UniProt P53667); experiment: in vitro kinase enzyme assay; format: biochemical
LIMK1 [2] = target: T1, LIMK1; experiment: biochemical; parameters: KINOMEscan active-site competition binding, percent of control (100 = no competition); settings: competition binding, percent control
Text: Kinases inhibited >25% to 50% have yellow circles, 51% to 75% have orange circles, and >76% have red circles. In each case, the size of the circle is proportional to percentage inhibition.

ACVRL1 = ACVRL1 (Homo sapiens, UniProt P37023); experiment: biochemical; parameters: KINOMEscan active-site competition binding, percent of control (100 = no competition); settings: competition binding, percent control
Chain of ACVRL1 (P37023 whole entry): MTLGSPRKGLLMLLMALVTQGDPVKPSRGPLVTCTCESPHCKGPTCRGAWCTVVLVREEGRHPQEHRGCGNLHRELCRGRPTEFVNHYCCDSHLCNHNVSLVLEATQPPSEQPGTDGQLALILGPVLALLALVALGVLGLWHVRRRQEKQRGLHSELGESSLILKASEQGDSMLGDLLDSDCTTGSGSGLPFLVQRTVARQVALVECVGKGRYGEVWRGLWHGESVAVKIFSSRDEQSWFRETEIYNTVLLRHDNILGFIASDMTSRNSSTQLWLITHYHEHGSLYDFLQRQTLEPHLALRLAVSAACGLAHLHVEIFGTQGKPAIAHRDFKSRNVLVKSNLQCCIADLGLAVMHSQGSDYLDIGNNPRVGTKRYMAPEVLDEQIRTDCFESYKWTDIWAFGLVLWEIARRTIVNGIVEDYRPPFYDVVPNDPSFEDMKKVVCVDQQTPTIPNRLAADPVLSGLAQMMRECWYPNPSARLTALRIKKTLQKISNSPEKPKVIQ

EGFR(L858R) = EGFR(L858R) (Homo sapiens, UniProt P00533, L858R); experiment: biochemical; parameters: KINOMEscan active-site competition binding, percent of control (100 = no competition); settings: competition binding, percent control
Chain of EGFR(L858R) (P00533 whole entry L858R): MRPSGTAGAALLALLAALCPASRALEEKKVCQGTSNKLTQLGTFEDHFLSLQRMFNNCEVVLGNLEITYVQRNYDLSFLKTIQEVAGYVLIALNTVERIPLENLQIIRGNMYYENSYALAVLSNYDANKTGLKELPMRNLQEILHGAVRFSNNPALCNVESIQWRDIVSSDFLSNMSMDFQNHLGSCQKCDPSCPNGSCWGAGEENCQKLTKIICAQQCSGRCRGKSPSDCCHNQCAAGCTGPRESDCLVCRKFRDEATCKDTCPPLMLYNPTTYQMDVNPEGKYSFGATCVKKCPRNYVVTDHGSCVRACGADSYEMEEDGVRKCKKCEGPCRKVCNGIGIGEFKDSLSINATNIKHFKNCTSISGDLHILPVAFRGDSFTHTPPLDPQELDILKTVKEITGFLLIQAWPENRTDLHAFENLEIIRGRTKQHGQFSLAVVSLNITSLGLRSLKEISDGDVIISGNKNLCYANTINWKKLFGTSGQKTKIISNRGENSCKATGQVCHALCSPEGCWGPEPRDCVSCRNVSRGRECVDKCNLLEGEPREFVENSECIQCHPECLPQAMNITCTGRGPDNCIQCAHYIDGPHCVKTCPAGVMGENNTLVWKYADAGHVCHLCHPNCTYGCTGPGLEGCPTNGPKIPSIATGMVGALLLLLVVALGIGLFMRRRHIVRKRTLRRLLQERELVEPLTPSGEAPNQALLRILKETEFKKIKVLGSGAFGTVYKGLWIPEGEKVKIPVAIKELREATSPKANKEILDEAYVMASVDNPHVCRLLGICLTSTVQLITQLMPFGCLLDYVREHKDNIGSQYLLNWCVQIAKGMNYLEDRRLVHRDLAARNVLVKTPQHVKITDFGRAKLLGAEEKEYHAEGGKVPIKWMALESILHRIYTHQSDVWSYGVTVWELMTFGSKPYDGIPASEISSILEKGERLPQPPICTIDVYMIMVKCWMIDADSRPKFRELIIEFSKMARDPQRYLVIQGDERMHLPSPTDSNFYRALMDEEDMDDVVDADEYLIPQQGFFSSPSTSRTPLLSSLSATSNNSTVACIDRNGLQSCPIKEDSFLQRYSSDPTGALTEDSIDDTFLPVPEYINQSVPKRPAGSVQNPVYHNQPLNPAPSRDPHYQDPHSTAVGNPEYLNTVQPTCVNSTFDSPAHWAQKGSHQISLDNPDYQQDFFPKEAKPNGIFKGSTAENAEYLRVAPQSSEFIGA

HIPK3 = HIPK3 (Homo sapiens, UniProt Q9H422); experiment: biochemical; parameters: KINOMEscan active-site competition binding, percent of control (100 = no competition); settings: competition binding, percent control
Chain of HIPK3 (Q9H422 whole entry): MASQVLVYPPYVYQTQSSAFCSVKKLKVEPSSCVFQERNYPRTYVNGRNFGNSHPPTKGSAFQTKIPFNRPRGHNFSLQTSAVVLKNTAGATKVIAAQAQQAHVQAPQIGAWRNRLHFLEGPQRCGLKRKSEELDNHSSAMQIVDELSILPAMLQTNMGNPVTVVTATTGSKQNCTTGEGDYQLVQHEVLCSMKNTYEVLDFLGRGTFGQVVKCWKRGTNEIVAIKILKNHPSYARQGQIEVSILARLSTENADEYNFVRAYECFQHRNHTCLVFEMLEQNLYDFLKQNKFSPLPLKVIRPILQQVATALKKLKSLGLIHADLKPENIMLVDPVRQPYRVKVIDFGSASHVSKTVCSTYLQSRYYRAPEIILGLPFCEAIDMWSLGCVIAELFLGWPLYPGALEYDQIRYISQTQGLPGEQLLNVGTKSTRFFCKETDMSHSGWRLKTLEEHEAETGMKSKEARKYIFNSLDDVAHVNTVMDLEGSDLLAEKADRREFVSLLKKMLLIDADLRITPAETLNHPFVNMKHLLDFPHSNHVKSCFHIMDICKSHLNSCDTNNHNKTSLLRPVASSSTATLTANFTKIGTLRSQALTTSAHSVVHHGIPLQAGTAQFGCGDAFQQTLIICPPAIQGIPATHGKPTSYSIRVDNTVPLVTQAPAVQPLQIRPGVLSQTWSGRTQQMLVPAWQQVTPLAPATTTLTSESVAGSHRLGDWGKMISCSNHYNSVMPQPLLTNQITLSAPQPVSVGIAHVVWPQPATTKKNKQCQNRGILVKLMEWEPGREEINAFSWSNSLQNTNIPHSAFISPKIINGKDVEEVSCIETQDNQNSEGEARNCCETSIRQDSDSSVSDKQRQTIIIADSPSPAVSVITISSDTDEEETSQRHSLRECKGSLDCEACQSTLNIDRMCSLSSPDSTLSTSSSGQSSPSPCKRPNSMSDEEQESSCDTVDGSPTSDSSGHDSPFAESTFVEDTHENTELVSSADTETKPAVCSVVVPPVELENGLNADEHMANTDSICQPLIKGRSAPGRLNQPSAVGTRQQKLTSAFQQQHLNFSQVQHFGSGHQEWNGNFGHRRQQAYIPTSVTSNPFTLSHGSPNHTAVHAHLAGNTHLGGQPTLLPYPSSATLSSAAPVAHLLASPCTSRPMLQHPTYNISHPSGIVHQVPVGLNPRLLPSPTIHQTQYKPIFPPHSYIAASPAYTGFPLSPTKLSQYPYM

JNK2 = target: T2, JNK2 (Homo sapiens, UniProt P45984); experiment: biochemical; parameters: KINOMEscan active-site competition binding, percent of control (100 = no competition); settings: competition binding, percent control
T2 construct: gene MAPK9

MAP4K3 = MAP4K3 (Homo sapiens, UniProt Q8IVH8); experiment: biochemical; parameters: KINOMEscan active-site competition binding, percent of control (100 = no competition); settings: competition binding, percent control
MAPKAPK5 = MAPKAPK5 (Homo sapiens, UniProt Q8IW41); experiment: biochemical; parameters: KINOMEscan active-site competition binding, percent of control (100 = no competition); settings: competition binding, percent control
Chain of MAPKAPK5 (Q8IW41 whole entry): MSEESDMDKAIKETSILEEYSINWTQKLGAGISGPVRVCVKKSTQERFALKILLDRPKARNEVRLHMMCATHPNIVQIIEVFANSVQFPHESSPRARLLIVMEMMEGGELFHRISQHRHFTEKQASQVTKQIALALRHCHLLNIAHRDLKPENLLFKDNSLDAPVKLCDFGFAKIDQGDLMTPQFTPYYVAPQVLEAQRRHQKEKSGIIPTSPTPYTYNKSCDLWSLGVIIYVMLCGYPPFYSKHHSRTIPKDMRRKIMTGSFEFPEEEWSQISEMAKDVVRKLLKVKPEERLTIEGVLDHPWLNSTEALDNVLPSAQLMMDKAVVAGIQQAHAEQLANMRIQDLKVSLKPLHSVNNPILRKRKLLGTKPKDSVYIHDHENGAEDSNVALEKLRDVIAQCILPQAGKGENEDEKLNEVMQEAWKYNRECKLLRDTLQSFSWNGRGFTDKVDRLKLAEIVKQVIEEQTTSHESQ

PAK6 = PAK6 (Homo sapiens, UniProt Q9NQU5); experiment: biochemical; parameters: KINOMEscan active-site competition binding, percent of control (100 = no competition); settings: competition binding, percent control
Chain of PAK6 (Q9NQU5 whole entry): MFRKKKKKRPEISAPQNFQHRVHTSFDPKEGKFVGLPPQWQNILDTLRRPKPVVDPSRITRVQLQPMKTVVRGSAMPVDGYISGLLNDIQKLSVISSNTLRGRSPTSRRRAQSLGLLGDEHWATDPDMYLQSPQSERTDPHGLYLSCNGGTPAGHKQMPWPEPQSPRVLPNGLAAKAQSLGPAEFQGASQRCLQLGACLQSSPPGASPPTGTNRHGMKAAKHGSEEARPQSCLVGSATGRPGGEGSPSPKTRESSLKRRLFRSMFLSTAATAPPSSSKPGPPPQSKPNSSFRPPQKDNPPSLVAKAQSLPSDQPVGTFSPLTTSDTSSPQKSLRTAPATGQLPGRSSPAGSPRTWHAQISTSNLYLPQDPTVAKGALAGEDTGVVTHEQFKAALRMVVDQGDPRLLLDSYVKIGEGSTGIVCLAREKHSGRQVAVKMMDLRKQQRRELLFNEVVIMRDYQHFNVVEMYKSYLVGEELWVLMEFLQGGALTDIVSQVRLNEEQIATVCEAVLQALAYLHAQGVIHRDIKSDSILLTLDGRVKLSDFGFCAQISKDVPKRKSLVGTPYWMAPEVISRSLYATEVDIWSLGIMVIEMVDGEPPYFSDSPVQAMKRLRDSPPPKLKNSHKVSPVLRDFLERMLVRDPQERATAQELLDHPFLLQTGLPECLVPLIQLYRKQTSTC

PLK1 = PLK1 (Homo sapiens, UniProt P53350); experiment: biochemical; parameters: KINOMEscan active-site competition binding, percent of control (100 = no competition); settings: competition binding, percent control
Chain of PLK1 (P53350 whole entry): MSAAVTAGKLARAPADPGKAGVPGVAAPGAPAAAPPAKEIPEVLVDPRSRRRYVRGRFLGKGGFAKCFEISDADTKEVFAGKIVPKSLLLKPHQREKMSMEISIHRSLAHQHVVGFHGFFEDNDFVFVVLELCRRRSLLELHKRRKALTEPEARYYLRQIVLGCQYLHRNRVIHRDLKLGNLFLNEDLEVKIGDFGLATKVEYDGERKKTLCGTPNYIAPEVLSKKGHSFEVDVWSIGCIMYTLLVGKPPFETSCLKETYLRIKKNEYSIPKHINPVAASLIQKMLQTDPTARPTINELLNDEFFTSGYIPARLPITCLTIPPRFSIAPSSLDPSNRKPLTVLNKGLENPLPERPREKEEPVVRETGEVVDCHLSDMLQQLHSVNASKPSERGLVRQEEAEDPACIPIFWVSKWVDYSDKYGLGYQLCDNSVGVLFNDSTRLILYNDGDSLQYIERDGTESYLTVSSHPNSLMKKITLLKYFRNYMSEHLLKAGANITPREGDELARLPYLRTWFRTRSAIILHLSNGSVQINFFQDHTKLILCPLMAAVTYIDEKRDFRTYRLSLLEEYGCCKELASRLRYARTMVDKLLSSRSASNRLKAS

PRKX = PRKX (Homo sapiens, UniProt P51817); experiment: biochemical; parameters: KINOMEscan active-site competition binding, percent of control (100 = no competition); settings: competition binding, percent control
Chain of PRKX (P51817 whole entry): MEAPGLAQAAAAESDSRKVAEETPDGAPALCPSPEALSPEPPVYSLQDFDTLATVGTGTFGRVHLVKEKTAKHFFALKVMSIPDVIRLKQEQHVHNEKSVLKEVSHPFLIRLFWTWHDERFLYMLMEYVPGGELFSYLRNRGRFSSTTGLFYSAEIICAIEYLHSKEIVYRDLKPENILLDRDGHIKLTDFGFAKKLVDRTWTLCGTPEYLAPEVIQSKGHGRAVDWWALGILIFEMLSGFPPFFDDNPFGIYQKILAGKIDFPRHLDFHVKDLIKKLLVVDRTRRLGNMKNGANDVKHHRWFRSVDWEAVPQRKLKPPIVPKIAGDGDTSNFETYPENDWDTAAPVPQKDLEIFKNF

COc1ccc(-c2cnccc2-c2cnc(NC(=O)C(C)C)s2)c(C(F)(F)F)c1 [CRT0105446, N-{5-[3-(4-Methoxy-2-trifluoromethyl-phenyl)-pyridin-4-yl]-hiazol-2-yl}-isobutyramide]
pIC50 (LIMK1 [1]): 8.10
remaining binding at 10 µM (LIMK1 [2]): 2%
remaining binding at 10 µM (ACVRL1): 100%
remaining binding at 10 µM (EGFR(L858R)): 76%
remaining binding at 10 µM (HIPK3): 98%
remaining binding at 10 µM (JNK2): 50%
remaining binding at 10 µM (MAP4K3): 58%
remaining binding at 10 µM (MAPKAPK5): 95%
remaining binding at 10 µM (PAK6): 93%
remaining binding at 10 µM (PLK1): 100%
remaining binding at 10 µM (PRKX): 100%

Cc1ccc(-c2cnccc2-c2cnc(Nc3ccc(O)cc3)s2)c(Cl)c1 [CRT0105950, 4-{5-[3-(2-Chloro-4-methyl-phenyl)-pyridin-4-yl]-thiazol-2-ylamino}-phenol]
remaining binding at 10 µM (ACVRL1): 100%
remaining binding at 10 µM (EGFR(L858R)): 69%
remaining binding at 10 µM (HIPK3): 69%
remaining binding at 10 µM (JNK2): 30%
remaining binding at 10 µM (MAP4K3): 18%
remaining binding at 10 µM (MAPKAPK5): 97%
remaining binding at 10 µM (PAK6): 38%
remaining binding at 10 µM (PLK1): 100%
remaining binding at 10 µM (PRKX): 100%

— paper PMC4770715, “LIM kinase inhibitors disrupt mitotic microtubule organization and impair tumor cell proliferation” (Oncotarget, 2015)
